Results published in patent US9447087B2, “Galactokinase inhibitors for the treatment and prevention of associated diseases and disorders” (UNIVERSITY OF UTAH RESEARCH FOUNDATION, priority 2011, dated 2016).

These compounds were tested against GALK (Homo sapiens (Human), UniProt P51570) (assay: primary qHTS assay for inhibitors of GALK (KinaseGlo ATP depletion)). Conditions: 5 nM GALK, 35 μM ATP, 1 hr incubation.
Format: biochemical
Design: GALK Assay Efficacy: unit not given here
Method: Assay details and protocol: The primary assay monitored ATP depletion using Promega's KinaseGlo™ technology, where ATP levels are measured through luminescence generated from firefly luciferase, a bioluminescent ATP-dependent enzymes. […] This was used as the positive control for the assay. […]

Sequence of GALK (P51570 whole entry): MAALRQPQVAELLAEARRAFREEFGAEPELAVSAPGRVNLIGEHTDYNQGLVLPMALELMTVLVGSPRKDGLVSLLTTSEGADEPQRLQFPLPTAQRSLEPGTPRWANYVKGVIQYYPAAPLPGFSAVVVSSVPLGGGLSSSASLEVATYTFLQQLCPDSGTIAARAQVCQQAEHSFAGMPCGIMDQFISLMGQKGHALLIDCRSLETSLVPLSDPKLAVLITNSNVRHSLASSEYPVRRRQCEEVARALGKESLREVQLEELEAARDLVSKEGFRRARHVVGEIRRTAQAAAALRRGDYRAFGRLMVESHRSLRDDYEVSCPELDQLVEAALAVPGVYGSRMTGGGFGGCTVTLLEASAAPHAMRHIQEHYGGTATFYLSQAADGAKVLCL

IC50 [µM] | Compound | GALK Assay Efficacy
16.8 | O=C1CCCC2=C1C1(CCC1)N=C(Nc1nc3ccccc3o1)N2 [Compound 3] | –
32.6 | CC1(C)N=C(Nc2nc3ccccc3o2)NC2=C1C(=O)CCC2 [Compound 5] | –
42.1 | O=C1CC(c2ccccc2)CC2=C1C1(CCCCC1)N=C(Nc1nc3ccccc3o1)N2 (stereo not drawn) [Compound 6] | –
5.17 | CC1(C)CC(=O)C2=C(C1)NC(Nc1nc3ccccc3o1)=NC21CCCCC1 [Compound 7] | –
6.68 | CC1(C)CC(=O)C2=C(C1)NC(Nc1nc3ccccc3o1)=NC21CCCC1 [Compound 8] | –
13.3 | O=C1CCC2=C1C1(CCCC1)N=C(Nc1nc3ccccc3o1)N2 [Compound 10] | –
47.3 | O=C1CCCC2=C1[C@@]1(CCC(c3ccccc3)C1)N=C(Nc1nc3ccccc3o1)N2 (stereo partly drawn) [Compound 12] | –
11.9 | CC1CCC2(C1)N=C(Nc1nc3ccccc3o1)NC1=C2C(=O)CCC1 (stereo not drawn) [Compound 14] | –
9.43 | O=C1CCC2=C1C(c1ccccc1Cl)N=C(Nc1nc3ccccc3o1)N2 (stereo not drawn) [Compound 16] | –
0.595 | O=C1CCCC2=C1C(c1ccccc1Cl)N=C(Nc1nc3ccccc3o1)N2 (stereo not drawn) [Compound 17] | –
2.66 | O=C1CCCC2=C1C1(CCSC1)N=C(Nc1nc3ccccc3o1)N2 (stereo not drawn) [Compound 21] | –
1.06 | O=C1CCCC2=C1C1(CCSCC1)N=C(Nc1nc3ccccc3o1)N2 [Compound 22] | –
33.5 | O=C1CCCC2=C1C1(CCCOC1)N=C(Nc1nc3ccccc3o1)N2 (stereo not drawn) [Compound 23] | –
68.5 | O=C1CCCC2=C1C(c1ccc(Cl)cc1)N=C(Nc1nc3ccccc3o1)N2 (stereo not drawn) [Compound 38] | –
12.2 | O=C1CCCC2=C1C(c1ccccc1C(F)(F)F)N=C(Nc1nc3ccccc3o1)N2 (stereo not drawn) [Compound 39] | –
16.8 | O=C1CCCC2=C1C(c1cccc(C(F)(F)F)c1)N=C(Nc1nc3ccccc3o1)N2 (stereo not drawn) [Compound 40] | –
0.749 | O=C1CCCC2=C1C(c1ccccc1Br)N=C(Nc1nc3ccccc3o1)N2 (stereo not drawn) [Compound 41] | –
68.5 | O=C1CCCC2=C1C(c1cccc(F)c1)N=C(Nc1nc3ccccc3o1)N2 (stereo not drawn) [Compound 42] | –
48.5 | COc1ccccc1C1N=C(Nc2nc3ccccc3o2)NC2=C1C(=O)CCC2 (stereo not drawn) [Compound 43] | –
18.8 | COc1cccc(C2N=C(Nc3nc4ccccc4o3)NC3=C2C(=O)CCC3)c1 (stereo not drawn) [Compound 44] | –
61.1 | COc1ccc(C2N=C(Nc3nc4ccccc4o3)NC3=C2C(=O)CCC3)cc1 (stereo not drawn) [Compound 45] | –
61.1 | Cc1cccc(C2N=C(Nc3nc4ccccc4o3)NC3=C2C(=O)CCC3)c1 (stereo not drawn) [Compound 46] | –
61.1 | Cc1ccc(C2N=C(Nc3nc4ccccc4o3)NC3=C2C(=O)CCC3)cc1 (stereo not drawn) [Compound 47] | –
61.1 | Cc1ccc(C2N=C(Nc3nc4ccccc4o3)NC3=C2C(=O)CCC3)s1 (stereo not drawn) [Compound 48] | –

IC50 [µM] | Compound | GALK Assay Efficacy
42.1 | O=C1CCCC2=C1C(c1ccncc1)N=C(Nc1nc3ccccc3o1)N2 (stereo not drawn) [Compound 50] | –
34.3 | O=C1CCCC2=C1C(c1ccccc1)N=C(Nc1nc3ccccc3o1)N2 (stereo not drawn) [Compound 52] | –
76.9 | CN(C)c1ccc(C2N=C(Nc3nc4ccccc4o3)NC3=C2C(=O)CCC3)cc1 (stereo not drawn) [Compound 53] | –
15.3 | O=C1CCCC2=C1C(c1ccncc1Cl)N=C(Nc1nc3ccccc3o1)N2 (stereo not drawn) [Compound 55] | –
2.66 | O=C1CCCC2=C1C(c1ccccc1Cl)N=C(Nc1nc3ccccc3o1)N2 (stereo not drawn) [Compound 57] | –
6.68 | O=C1CCCC2=C1C(c1ncccc1C(F)(F)F)N=C(Nc1nc3ccccc3o1)N2 (stereo not drawn) [Compound 58] | –
6.68 | O=C1CCCC2=C1C(c1cnccc1C(F)(F)F)N=C(Nc1nc3ccccc3o1)N2 (stereo not drawn) [Compound 59] | –
13 | O=C1CCCC2=C1C(c1c(Cl)cccc1Cl)N=C(Nc1nc3ccccc3o1)N2 (stereo not drawn) [Compound 60] | –
18.8 | O=C1CCCC2=C1C(c1cccnc1Cl)N=C(Nc1nc3ccccc3o1)N2 (stereo not drawn) [Compound 61] | –
14.6 | O=C1CCCC2=C1C(c1cccnc1Br)N=C(Nc1nc3ccccc3o1)N2 (stereo not drawn) [Compound 63] | –
36.6 | Cn1ncc(Cl)c1C1N=C(Nc2nc3ccccc3o2)NC2=C1C(=O)CCC2 (stereo not drawn) [Compound 64] | –
9.19 | Cc1ccsc1C1N=C(Nc2nc3ccccc3o2)NC2=C1C(=O)CCC2 (stereo not drawn) [Compound 65] | –
1.16 | O=C1CCCC2=C1C(c1ccccc1I)N=C(Nc1nc3ccccc3o1)N2 (stereo not drawn) [Compound 66] | –
0.651 | O=C1CCCC2=C1C(c1ncccc1Br)N=C(Nc1nc3ccccc3o1)N2 (stereo not drawn) [Compound 67] | –
1.46 | O=C1CCCC2=C1C(c1ccncc1Br)N=C(Nc1nc3ccccc3o1)N2 (stereo not drawn) [Compound 68] | –
2.91 | O=C1CCCC2=C1C(c1n[nH]cc1Br)N=C(Nc1nc3ccccc3o1)N2 (stereo not drawn) [Compound 69] | –
2.91 | Cn1cc(Br)c(C2N=C(Nc3nc4ccccc4o3)NC3=C2C(=O)CCC3)n1 (stereo not drawn) [Compound 70] | –
20.6 | O=C1CCCC2=C1C(c1ccncc1Br)N=C(Nc1nc3ccccc3o1)N2 (stereo not drawn) [Compound 71] | –
14.6 | O=C1CCCC2=C1C(c1ccn[nH]1)N=C(Nc1nc3ccccc3o1)N2 (stereo not drawn) [Compound 73] | –
2.91 | O=C1CCCC2=C1C(c1n[nH]cc1Cl)NC(Nc1nc3ccccc3o1)=N2 (stereo not drawn) [Compound 75] | –
3.26 | CC1=C(C(=O)Nc2ccccc2Cl)C(c2ccccc2Br)N=C(Nc2nc3ccccc3o2)N1 (stereo not drawn) [Compound 76] | –
5.17 | CC1=C(C(=O)Nc2ccc(Cl)cc2)C(c2ccccc2Br)N=C(Nc2nc3ccccc3o2)N1 (stereo not drawn) [Compound 77] | –
4.61 | CC1=C(C(=O)Nc2ccccc2C)C(c2ccccc2Br)N=C(Nc2nc3ccccc3o2)N1 (stereo not drawn) [Compound 78] | –
3.26 | COc1ccc(NC(=O)C2=C(C)NC(Nc3nc4ccccc4o3)=NC2c2ccccc2Br)cc1 (stereo not drawn) [Compound 81] | –

IC50 [µM] | Compound | GALK Assay Efficacy
18.3 | CC1=C(C(=O)n2ccc3ccccc32)C(c2ccccc2Br)N=C(Nc2nc3ccccc3o2)N1 (stereo not drawn) [Compound 82] | –
10.3 | CC1=C(C(=O)N(C)c2ccccc2C)C(c2ccccc2Br)N=C(Nc2nc3ccccc3o2)N1 (stereo not drawn) [Compound 83] | –
5.8 | CC1=C(C(=O)Nc2ccon2)C(c2ccccc2Br)N=C(Nc2nc3ccccc3o2)N1 (stereo not drawn) [Compound 84] | –
3.26 | CC1=C(C(=O)Nc2nncs2)C(c2ccccc2Br)N=C(Nc2nc3ccccc3o2)N1 (stereo not drawn) [Compound 86] | –
9.19 | CC1=C(C(=O)NC2CCCCC2)C(c2ccccc2Br)N=C(Nc2nc3ccccc3o2)N1 (stereo not drawn) [Compound 89] | –
9.19 | CC1=C(C(=O)Nc2ccccc2)C(c2ccccc2Br)N=C(Nc2nc3ccccc3o2)N1 (stereo not drawn) [Compound 90] | –
20.6 | CC1=C(C(=O)N(C)C)C(c2ccccc2Br)N=C(Nc2nc3ccccc3o2)N1 (stereo not drawn) [Compound 91] | –
6.51 | CC1=C(C(=O)NCc2ccccc2)C(c2ccccc2Br)N=C(Nc2nc3ccccc3o2)N1 (stereo not drawn) [Compound 92] | –
3.26 | CC1=C(C(=O)Nc2nncs2)C2(CCCC2)N=C(Nc2nc3ccccc3o2)N1 [Compound 93] | –
6.51 | CC1=C(C(=O)Nc2ccon2)C2(CCCC2)N=C(Nc2nc3ccccc3o2)N1 [Compound 94] | –
25.9 | CC1=C(C(=O)Nc2nc3ccccc3s2)C2(CCCC2)N=C(Nc2nc3ccccc3o2)N1 [Compound 95] | –
8.19 | CC1=C(C(=O)Nc2ccon2)C(c2nn(C)cc2Cl)N=C(Nc2nc3ccccc3o2)N1 (stereo not drawn) [Compound 97] | –
9.19 | CC1=C(C(=O)Nc2nc3ccccc3s2)C(c2nn(C)cc2Cl)N=C(Nc2nc3ccccc3o2)N1 (stereo not drawn) [Compound 98] | –
3.66 | CC1=C(C(=O)Nc2nnc(-c3ccccc3)s2)C(c2nn(C)cc2Cl)N=C(Nc2nc3ccccc3o2)N1 (stereo not drawn) [Compound 100] | –
18.3 | CC1=C(C(=O)NC2CC2)C(c2nn(C)cc2Cl)N=C(Nc2nc3ccccc3o2)N1 (stereo not drawn) [Compound 101] | –
5.17 | CC1=C(C(=O)Nc2nncs2)C(c2nn(C)cc2Cl)N=C(Nc2nc3ccccc3o2)N1 (stereo not drawn) [Compound 102] | –
16.3 | CNC(=O)C1=C(C)NC(Nc2nc3ccccc3o2)=NC1c1nn(C)cc1Cl (stereo not drawn) [Compound 105] | –
11.6 | CC1=C(C(=O)Nc2nc3ccccc3s2)C(c2n[nH]cc2Cl)N=C(Nc2nc3ccccc3o2)N1 (stereo not drawn) [Compound 107] | –
5.17 | CC1=C(C(=O)Nc2nnc(-c3ccccc3)s2)C(c2n[nH]cc2Cl)N=C(Nc2nc3ccccc3o2)N1 (stereo not drawn) [Compound 108] | –
20.6 | CC1=C(C(=O)NC2CC2)C(c2n[nH]cc2Cl)N=C(Nc2nc3ccccc3o2)N1 (stereo not drawn) [Compound 110] | –
20.6 | CNC(=O)C1=C(C)NC(Nc2nc3ccccc3o2)=NC12CCCC2 [Compound 111] | –
9.19 | CC1=C(C(=O)Nc2ccon2)C(c2nn(C)cc2Cl)N=C(Nc2nc3ccccc3o2)N1 (stereo not drawn) [Compound 112] | –

Compound | IC50 [µM] | GALK Assay Efficacy
O=C1CCCC2=C1C1(CCS(=O)(=O)C1)N=C(Nc1nc3ccccc3o1)N2 (stereo not drawn) [Compound 24, 2-(benzo[d]oxazol-2-ylamino)-4′,5′,7,8-tetrahydro-1H,2′H-spiro[quinazoline-4,3′-thiophen-1,1-dioxide]-5(6H)-one] | 6.68 | 67.583
O=C1CCCC2=C1C(c1cccc(Cl)c1)N=C(Nc1nc3ccccc3o1)N2 (stereo not drawn) [Compound 37] | 61.1 | –
O=C1CCCC2=C1C(c1ccc(F)cc1)N=C(Nc1nc3ccccc3o1)N2 (stereo not drawn) [Compound 51] | 61.1 | –
Cc1cc(C2N=C(Nc3nc4ccccc4o3)NC3=C2C(=O)CCC3)n[nH]1 (stereo not drawn) [Compound 74] | 18.3 | –
CNC(=O)C1=C(C)NC(Nc2nc3ccccc3o2)=NC1c1n[nH]cc1Cl (stereo not drawn) [Compound 109] | 18.3 | –

What follows are compounds tested on HEK293 cells (assay: cytotoxicity, Promega CellTiter Glo on HEK293 cells (PubChem ID 2547)). Conditions: analyzed after 48 hours.
Format: cell-based
Method: The selectivity for these analogs against CDP-ME kinase, another member of the GHMP kinase family, was performed using a bioluminescent Kinase Glo™ assay that detects ATP depletion after kinase reaction (PubChem ID 2506). […] All analogs were also tested for cytotoxicity using Promega CellTiter Glo on HEK293 cells that were treated with compounds and analyzed after 48 hours.

Compound | cytotoxic effect on HEK293 cells
O=C1CCCC2=C1C1(CCC1)N=C(Nc1nc3ccccc3o1)N2 [Compound 3] | no cytotoxic effect
O=C1CCCC2=C1C1(CCCC1)N=C(Nc1nc3ccccc3o1)N2 [Compound 4] | no cytotoxic effect
O=C1CC(c2ccccc2)CC2=C1C1(CCCCC1)N=C(Nc1nc3ccccc3o1)N2 (stereo not drawn) [Compound 6] | no cytotoxic effect
CC1(C)CC(=O)C2=C(C1)NC(Nc1nc3ccccc3o1)=NC21CCCC1 [Compound 8] | no cytotoxic effect
O=C1CCC2=C1C1(CCCC1)N=C(Nc1nc3ccccc3o1)N2 [Compound 10] | no cytotoxic effect
